Entries after “also recorded” stand apart in the source; their conditions may differ.
Key:
Format in all cases: biochemical
LYPLA1 = target: T1, LYPLA1 (Mus musculus, UniProt P97823); assay: Gel-based competitive ABPP in vitro, mouse brain membrane proteome; conditions: 30 min, one replicate; for inhibition at 1 µM: 1 μM compound, read-out: LYPLA1 % INH 1 μM; for inhibition at 10 µM: 10 μM compound, read-out: LYPLA1 % INH 10 μM; for inhibition at 100 µM: 100 μM compound, read-out: LYPLA1 % INH 100 μM
T1 construct: a complex proteome endogenously expressing LYPLA1/2 was incubated with test compound; from tissue; host or cells: mouse brain, membrane fraction
T1 sequence (P97823 whole entry): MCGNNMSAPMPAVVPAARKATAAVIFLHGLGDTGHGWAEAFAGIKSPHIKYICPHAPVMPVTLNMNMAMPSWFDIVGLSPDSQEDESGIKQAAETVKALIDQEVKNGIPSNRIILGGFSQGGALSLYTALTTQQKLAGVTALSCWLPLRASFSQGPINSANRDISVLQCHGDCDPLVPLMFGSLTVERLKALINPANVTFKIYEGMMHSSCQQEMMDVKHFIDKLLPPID
Experimental: (§1) Assay Overview: The purpose of this assay was to determine whether test compounds can inhibit LYPLA1 and LYPLA2 in a complex proteomic lysate and to assess anti-target inhibition using a competitive activity-based proteomic profiling (ABPP) assay. In this assay, a complex proteome endogenously expressing LYPLA1/2 was incubated with test compound followed by reaction with a rhodamine-conjugated fluorophosphonate (FP-Rh) serine-hydrolase specific activity-based probe. The reaction products were separated by SDS-PAGE and visualized in-gel using a flatbed fluorescence scanner. The percentage activity remaining was determined by measuring the integrated optical density of the bands. […] Percent inhibition was calculated relative to a DMSO (no compound) control.
(§2) Protocol Summary: Mouse brain membrane proteome (50 μL reaction volume, 1 mg/mL in DPBS) was treated with 0.1-100 μM test compound (1 μL of a 50× stock in DMSO) for 30 minutes at 37° C. FP-Rh (1 μL of 50× stock in DMSO, Thermo #88318) was added to a final concentration of 2 μM. The reactions were incubated for 30 minutes at 25° C., quenched with 16 μL 4×SDS-PAGE loading buffer (reducing), separated by SDS-PAGE and visualized by in-gel fluorescent scanning. The percentage activity remaining was determined by measuring the integrated optical density of the bands relative to a DMSO-only (no compound) control. Assay Cutoff: Compounds with ≥50% inhibition of targets at 1 μM test compound concentration were considered active.
(§3) N-Hydroxy bicyclic hydantoin carbamates (Compounds 1-20) listed in Table 1 were subjected to gel-based competitive ABPP screening to assess SH reactivity against more than 20 FP-sensitive SHs visible by 1D SDS-PAGE separation and fluorescent detection in the mouse brain proteome (see FIG. 1). […] Compound treatment ([…], 30 minutes) was followed by labeling with SH-specific ABPP probe FP-Rh (2 μM, 30 minutes), 1D-SDS-PAGE, and in-gel fluorescent visualization of FP-labeled proteins. Assignment of LYPLA1/2 bands was based on correlation of molecular weights, expression and inhibition profiles with LC-MS/MS data and recombinant enzyme expression. Proteins were listed as anti-targets if at least 50% inhibition was observed as quantified relative to the DMSO control.
(§4) Compounds 1-20 were subjected to gel-based competitive ABPP profiling to assess potency and selectivity against several dozen FP-sensitive SHs in the mouse brain membrane proteome, which endogenously expresses LYPLA1 and LYPLA2, as well a diversity of potential SH anti-targets. Compounds were tested at 100 μM, 10 μM, 1 μM, and/or 0.1 μM compound concentration.

LYPLA2 = target: T2, LYPLA2 (Mus musculus, UniProt Q9WTL7); assay: as above; conditions: 30 min, one replicate; for inhibition at 1 µM: 1 μM compound, read-out: LYPLA2 % INH 1 μM; for inhibition at 10 µM: 10 μM compound, read-out: LYPLA2 % INH 10 μM; for inhibition at 100 µM: 100 μM compound, read-out: LYPLA2 % INH 100 μM
T2 construct: a complex proteome endogenously expressing LYPLA1/2 was incubated with test compound; from tissue; host or cells: mouse brain, membrane fraction
T2 sequence (Q9WTL7 whole entry): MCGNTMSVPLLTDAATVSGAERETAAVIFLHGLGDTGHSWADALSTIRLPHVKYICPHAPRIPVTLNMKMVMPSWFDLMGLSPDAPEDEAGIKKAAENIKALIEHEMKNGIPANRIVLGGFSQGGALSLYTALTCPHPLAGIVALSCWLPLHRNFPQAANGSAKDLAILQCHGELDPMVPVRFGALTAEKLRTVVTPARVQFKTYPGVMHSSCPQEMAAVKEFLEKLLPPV
Experimental: as §1, §2, §3, §4

[1] = tested on: FP-sensitive SHs in the mouse brain membrane proteome; assay: Gel-based competitive ABPP in vitro, mouse brain membrane proteome, anti-targets; conditions: for Anti-target(s) 1 μM: SHs with at least 50% inhibition at 1 μM compound; for Anti-target(s) 10 μM: SHs with at least 50% inhibition at 10 μM compound; for Anti-target(s) 100 μM: SHs with at least 50% inhibition at 100 μM compound
Experimental: as §1, §2, §3, §4

Row | Compound | inhibition at 0.1 µM (LYPLA1; 0.1 μM compound, read-out: LYPLA1 % INH 0.1 μM) [%] | inhibition at 1 µM (LYPLA1) [%] | inhibition at 10 µM (LYPLA1) [%] | inhibition at 100 µM (LYPLA1) [%] | inhibition at 0.1 µM (LYPLA2; 0.1 μM compound, read-out: LYPLA2 % INH 0.1 μM) [%] | inhibition at 1 µM (LYPLA2) [%] | inhibition at 10 µM (LYPLA2) [%] | inhibition at 100 µM (LYPLA2) [%] | Anti-target(s) 0.1 μM ([1]; SHs with at least 50% inhibition at 0.1 μM compound) | Anti-target(s) 1 μM [1] | Anti-target(s) 10 μM [1] | Anti-target(s) 100 μM [1]
1 | O=C(Cc1ccccc1)N1CCN2C(=O)N(OC(=O)N3CCC(CCc4ccc(Cl)cc4)CC3)C(=O)C2C1 (stereo not drawn) [Compound 6, 1,3-dioxo-7-(2-phenylacetyl)hexahydroimidazo[1,5-a]pyrazin-2(3H)-yl 4-(4-chlorophenethyl)piperidine-1-carboxylate] | 25 | 95 | 100 | 100 | 25 | 95 | 100 | 100 | ABHD6 | FAAH,; also recorded: ABHD6 | FAAH,; also recorded: MAGL,; also recorded: ABHD6 | FAAH,; also recorded: MAGL,; also recorded: ABHD6
2 | Cc1ccc(C(=O)N2CCN3C(=O)N(OC(=O)N4CCC(CCc5ccc(Cl)cc5)CC4)C(=O)C3C2)cc1 (stereo not drawn) [Compound 8, 7-(4-methylbenzoyl)-1,3-dioxohexahydroimidazo[1,5-a]pyrazin-2(3H)-yl 4-(4-chlorophenethyl)piperidine-1-carboxylate] |  | 75 | 100 | 100 |  | 75 | 100 | 100 |  | ABHD6 | FAAH,; also recorded: ABHD12,; also recorded: ABHD6 | FAAH,; also recorded: ABHD12,; also recorded: MAGL,; also recorded: ABHD6
3 | O=C(ON1C(=O)C2CN(C(=O)c3ccc(F)c([N+](=O)[O-])c3)CCN2C1=O)N1CCC(CCc2ccc(Cl)cc2)CC1 (stereo not drawn) [Compound 9, 7-(4-fluoro-3-nitrobenzoyl)-1,3-dioxohexahydroimidazo[1,5-a]pyrazin-2(3H)-yl 4-(4-chlorophenethyl)piperidine-1-carboxylate] |  | 90 | 100 | 100 |  | 90 | 100 | 100 |  | ABHD6 | FAAH,; also recorded: ABHD12,; also recorded: ABHD6 | FAAH,; also recorded: ABHD12,; also recorded: MAGL,; also recorded: ABHD6
4 | CN(C)c1ccc(C(=O)N2CCN3C(=O)N(OC(=O)N4CCC(CCc5ccc(Cl)cc5)CC4)C(=O)C3C2)cc1 (stereo not drawn) [Compound 10, 7-(4-(dimethylamino)benzoyl)-1,3-dioxohexahydroimidazo[1,5-a]pyrazin-2(3H)-yl4-(4-chlorophenethyl)piperidine-1-carboxylate] |  | 75 | 100 | 100 |  | 75 | 100 | 100 |  |  |  | 
5 | COc1ccc(C(=O)N2CCN3C(=O)N(OC(=O)N4CCC(CCc5ccc(Cl)cc5)CC4)C(=O)C3C2)cc1 (stereo not drawn) [Compound 11, 7-(4-methoxybenzoyl)-1,3-dioxohexahydroimidazo[1,5-a]pyrazin-2(3H)-yl 4-(4-chlorophenethyl)piperidine-1-carboxylate] |  | 90 | 100 | 100 |  | 90 | 100 | 100 |  | ABHD6 | FAAH,; also recorded: ABHD12,; also recorded: MAGL,; also recorded: ABHD6 | FAAH,; also recorded: ABHD12,; also recorded: MAGL,; also recorded: ABHD6

— patent publication US9981972B2, “N-hydroxy bicyclic hydantoin carbamates as tools for identification of serine hydrolase targets” (ABIDE THERAPEUTICS, INC., priority 2014, dated 2018)
